Where two headings read alike, the source gives them in different places.
What was measured:
[1] = system: Adenovirus 5 (AdV5); assay: Cytopathic effects (CPE) reduction assay, AdV5 in HFF cells, 384-well; assay type: cell-based, human adenovirus 5 (AdV5); settings: for EC50: AdV 384 Well CPE, HFF cells, average and SD from five independent experiments
Description: Cell monolayers were infected at a multiplicity of infection (MOI) of approximately 0.005 PFU/cell with virus strains including AdV5. […] Cytopathology was determined by the addition of CellTiter-Glo® reagent (Promega, Madison, Wis.). Concentrations of antiviral test compounds sufficient to reduce CPE by 50% (EC50) were interpolated from the experimental data using standard methods in Microsoft® Excel.

[2] = system: human foreskin fibroblast (HFF) cells; assay: Cytotoxicity, CellTiter-Glo cell viability in HFF cells
Description: (§1) Human foreskin tissue was obtained from the University of Alabama at Birmingham tissue procurement facility with approval from the Institutional Review Board. The tissue was stored at 4° C. in cell culture medium consisting of minimum essential media (MEM) with Earle's salts supplemented with 10% fetal bovine serum (FBS; HyClone, Inc., Logan, Utah) and standard concentration of L-glutamine, amphotericin B (Fungizone), and vancomycin. The tissue was then placed in a phosphate-buffered saline solution, minced, and rinsed to remove the red blood cells. Tissue fragments were then resuspended in a trypsin-EDTA solution and incubated at 37° C. to disperse the cells, which were then collected by centrifugation. Cell pellets were then resuspended in 4 ml culture medium, placed in a 25-cm^2 tissue culture flask, and incubated at 37° C. for 24 h. The culture medium was then replaced with fresh medium and condition of the cells was monitored daily until a confluent cell monolayer was formed. The HFF cells were then expanded through serial passages in standard growth medium of MEM with Earle's salts supplemented with 10% FBS, L-glutamine, penicillin, and gentamicin. Each lot of cells was confirmed to be free of mycoplasma infection and routinely passaged or used for assays at or before passage 10.
(§2) Antiviral and cytotoxicity data were obtained in a series of three to five separate experiments for each virus to provide an accurate estimate of antiviral activity and statistical data. Each assay included positive and negative control compounds as well as infected and uninfected controls to ensure the integrity of the experiment.
(§3) The CPE reduction assays were performed in monolayers of human foreskin fibroblast (HFF) cells (5000/well) in 384-well plates in assay media consisting of MEM with Earle's salts, 2% FBS and standard concentrations of L-glutamine, penicillin and gentamycin. 5000 cells were seeded in 384-well microtiter plates and incubated at 37° C. in a humidified 5% CO2 incubator for 24 hours to allow for formation of confluent monolayers.
(§4) Cell monolayers were infected at a multiplicity of infection (MOI) of approximately 0.005 PFU/cell with virus strains including AdV5. […] Cytopathology was determined by the addition of CellTiter-Glo® reagent (Promega, Madison, Wis.).

[3] = as above; settings: human, human foreskin fibroblast (HFF) cells
Description: as §1, §2, §3, §4

[4] = system: ocular AdV infections; settings: topical, literature; cited from earlier work
[5] = HFF cells, 384-well, average and SD from five independent experiments

SMILES | CC50 [2, 5] [µM] | EC50 [1] [µM] | also measured
O=c1[nH]c(=S)c(I)cn1[C@H]1C[C@H](O)[C@@H](CO)O1 [4-thio-IDU, 4-thioidoxuridine] | 26 ± 24 |  | EC50 ([1]; Human mastadenovirus C): 11 ± 9.4 µM
Nc1nc2c(ncn2COCCO)c(=O)[nH]1 [ACV, acyclovir] |  |  | CC50 [3]: > 100 µM
OC[C@H]1O[C@@H](n2c(Br)nc3cc(Cl)c(Cl)cc32)[C@H](O)[C@@H]1O [BDCRB, bromodichlororibobenzimidazole] | 91 ± 13 | 70 ± 39 | 
O=c1[nH]c(=O)n([C@@H]2O[C@H](CO)[C@@H](O)[C@@H]2F)cc1I [FIAU] |  | > 100 | CC50 [2]: > 100 µM
Nc1nc(O)c2ncn(COC(CO)CO)c2n1 [GCV, ganciclovir] |  |  | selectivity ratio ([1]; human, adenovirus 5, HFF cells, read-out: SI (selective index, CC50/EC50)): ≥ 1.5; CC50 [3]: > 100 µM; efficacy in the treatment of AdV conjunctivitis in clinical trials [4]: lacks efficacy
O=c1[nH]c(=O)n([C@@H]2CO[C@H](CO)O2)cc1/C=C/Br [L-BHDU, L-Bromovinyl-Hydroxymethyl-Dioxolan Uracil] |  | > 100 | CC50 [2]: > 100 µM
Cc1cn([C@H]2C[C@H](O)[C@]3(CO)C[C@H]23)c(=O)[nH]c1=O [N-MCT, N-methanocarbathymidine] | 72 ± 33 | 57 ± 47 | 
Nc1ncnc2c1ncn2CCOCP(=O)(O)O [PMEA, adefovir] | > 100 |  | 

Source: patent US20220370464A1, “COMPOSITIONS AND METHODS OF TREATING OR PREVENTING OCULAR INFECTIONS WITH FILOCICLOVIR” (Microbiotix, Inc., priority 2019, published 2022)
